These results are taken from PMC7215599, “Synthesis, Antitumor Evaluation, Molecular Modeling and Quantitative Structure–Activity Relationship (QSAR) of Novel 2-[(4-Amino-6-N-substituted-1,3,5-triazin-2-yl)methylthio]-4-chloro-5-methyl-N-(1H-benzo[d]imidazol-2(3H)-ylidene)Benzenesulfonamides” (International Journal of Molecular Sciences, 2020).

Assay [1] has as its system HCT-116 (colon cancer) cell line. Kind of assay: MTT cell viability assay, HCT-116. It counts as cell-based, human. The following applies: for IC50: MTT, 72 h, 1-100 µM, mean ± SD. Here is the method: (§1) Compounds 6–49 were evaluated in vitro for their effects on the viability of the three human cancer cell lines: HCT-116 (colon cancer), MCF-7 (breast cancer) and HeLa (cervical cancer) as well as the non-cancerous keratinocyte cell line (HaCaT). The concentration required for 50% inhibition of cell viability IC50 was calculated and compared with the reference drug cisplatin, the results are shown in Table 1.
(§2) Cell lines: colon cancer (HCT-116), breast cancer (MCF-7), cervical cancer (HeLa), the human keratinocyte cell line (HaCaT); NT—not tested; IC50 was measured at concentrations 1, 10, 25, 50, and 100 µM. IC50 values are expressed as the mean ± SD of at last three independent experiments.
(§3) All chemicals, if not stated otherwise, were obtained from Sigma–Aldrich (St. Louis, MO, USA). The HCT-116 cell lines was purchased from ATCC (ATCC-No: CCL-247), while the MCF-7, HeLa and HaCaT cell lines were purchased from Cell Lines Services (Eppelheim, Germany). Cells were cultured in Dulbecco’s modified Eagle’s medium (DMEM) supplemented with 10% fetal bovine serum, 2 mM glutamine, 100 units/mL penicillin, and 100 µg/mL streptomycin. Cultures were maintained in a humidified atmosphere with 5% carbon dioxide at 37 °C in an incubator (Heraceus, HeraCell).
(§4) Cell viability was examined using the MTT (3-(4,5-dimethylthiazol-2-yl)-2,5-diphenyltetrazolium bromide) assay. Cells were seeded in 96-well plates at a density of 5 × 10^3 cells/well and treated for 72 h with the tested compounds in the concentration range of 1–100 µM (1, 10, 25, 50 and 100 µM). Then, MTT (0.5 mg/mL) was added to the medium and cells were further incubated for 2 h at 37 °C. In the next stage, cells were lysed with DMSO and the absorbance of the formazan solution was measured at 550 nm with a plate reader (1420 multilabel counter, Victor, Jügesheim, Germany). The experiment was performed in triplicate. Values are expressed as the mean ± SD of at least three independent experiments. Cisplatin was used as a positive control.
(In general: Tetrazolium assays rely on reduction of a dye to a coloured formazan, in cell work by metabolically active cells.)

In assay [2] the test system is MCF-7 (breast cancer) cell line. Kind of assay: MTT cell viability assay, MCF-7. The conditions noted are these: for IC50: MTT, 72 h, 1-100 µM, mean ± SD. The format is cell-based, human. On the procedure:
as §1, §2, §3, §4

The test system of assay [3] is HeLa (cervical cancer) cell line. Kind of assay: MTT cell viability assay, HeLa. It counts as cell-based, human. The conditions noted are these: 72 h, MTT, 1-100 µM, mean ± SD. On the procedure:
as §1, §2, §3, §4

Assay [4] has as its system HaCaT (non-cancerous keratinocyte cell line). Kind of assay: MTT cell viability assay, HaCaT. The format is cell-based. The conditions noted are these: Homo sapiens, 72 h, 1-100 µM, mean ± SD, non-cancerous cells. On the procedure: as §1, §2, §3, §4
Assay [5] has as its system HCT-116, MCF-7 and HeLa cell lines. Kind of assay: MTT cell viability assay, all tested cancer cell lines taken together. It counts as cell-based. The conditions noted are these: Homo sapiens; range over HCT-116, MCF-7 and HeLa; read-out: IC50 toward all of the tested cell lines (range over the lines). On the procedure: as §1, §2, §3, §4

Where only a bound is given, the exact number is not on record here.

As for `Cc1cc(S(=O)(=O)N=c2[nH]c3ccccc3[nH]2)c(SCc2nc(N)nc(N3CCc4ccccc43)n2)cc1Cl` [Compound 9, 2-{[4-Amino-6-(indolin-1-yl)-1,3,5-triazin-2-yl]metylthio}-N-(1H-benzo[d]imidazol-2(3H)-ylidene)-4-chloro-5-methylbenzenesulfonamide], the IC50 (as a rule, the midpoint of a concentration-inhibition curve) is 25 ± 1 µM in assay [1] (Homo sapiens, HCT-116, 72 h); 20 ± 1 µM in assay [2] (Homo sapiens, MCF7, 72 h); 23 ± 1 µM in assay [3] (Homo sapiens, HeLa); 42 ± 2 µM in assay [4]; 17 to 30 µM in assay [5].
Turning to `Cc1cc(S(=O)(=O)N=c2[nH]c3ccccc3[nH]2)c(SCc2nc(N)nc(N3CCN(C)CC3)n2)cc1Cl` [Compound 18, 2-{[4-Amino-6-(4-methylpiperazin-1-yl)-1,3,5-triazin-2-yl]metylthio}-N-(1H-benzo[d]imidazol-2(3H)-ylidene)-4-chloro-5-methylbenzenesulfonamide], the IC50 in assay [1] (Homo sapiens, HCT-116, 72 h) was 42 ± 2 µM; in assay [2] (Homo sapiens, MCF7, 72 h), more than 100 µM; in assay [2] it was 82 ± 3 µM; in assay [3] (Homo sapiens, HeLa), 61 ± 2 µM; in assay [4] it was 84 ± 3 µM; in assay [5] it was 42 to 82 µM.
Turning to `Cc1cc(S(=O)(=O)N=c2[nH]c3ccccc3[nH]2)c(SCc2nc(N)nc(N3CCN(c4ccccc4)CC3)n2)cc1Cl` [Compound 19, 2-{[4-Amino-6-(4-phenylpiperazin-1-yl)-1,3,5-triazin-2-yl]methylthio}-N-(1H-benzo[d]imidazol-2(3H)-ylidene)-4-chloro-5-methylbenzenesulfonamide], the IC50 was 15 ± 1 µM in assay [1] (Homo sapiens, HCT-116, 72 h); 19 ± 1 µM in assay [2] (Homo sapiens, MCF7, 72 h); 18 ± 1 µM in assay [3] (Homo sapiens, HeLa); 31 ± 1 µM in assay [4]; 7 to 19 µM in assay [5].
In the same order, the values of `Cc1cc(S(=O)(=O)N=c2[nH]c3ccccc3[nH]2)c(SCc2nc(N)nc(N3CCN(c4ccc(F)cc4)CC3)n2)cc1Cl` [Compound 20, 2-[{4-Amino-6-[4-(4-fluorophenyl)piperazin-1-yl]-1,3,5-triazin-2-yl}methylthio]-N-(1H-benzo[d]imidazol-2(3H)-ylidene)-4-chloro-5-methylbenzenesulfonamide] are 16 ± 0.5 µM, 17 ± 0.5 µM, 17 ± 1 µM, 35 ± 1 µM and 7 to 19 µM.
In the same order, the values of `Cc1cc(S(=O)(=O)N=c2[nH]c3ccccc3[nH]2)c(SCc2nc(N)nc(N3CCN(c4ccc(Cl)cc4)CC3)n2)cc1Cl` [Compound 23, 2-[{4-Amino-6-[4-(4-chlorophenyl)piperazin-1-yl]-1,3,5-triazin-2-yl}methylthio]-N-(1H-benzo[d]imidazol-2(3H)-ylidene)-4-chloro-5-methylbenzenesulfonamide] are 16 ± 0.5 µM, 17 ± 0.5 µM, 17 ± 1 µM, 35 ± 1 µM and 7 to 19 µM.
Turning to `Cc1cc(S(=O)(=O)N=c2[nH]c3ccccc3[nH]2)c(SCc2nc(N)nc(N3CCN(S(=O)(=O)c4ccccc4)CC3)n2)cc1Cl` [Compound 32, 2-[{4-Amino-6-[4-(phenylsulfonyl)piperazin-1-yl]-1,3,5-triazin-2-yl}methylthio]-N-(1H-benzo[d]imidazol-2(3H)-ylidene)-4-chloro-5-methylbenzenesulfonamide], the IC50 in assay [2] (Homo sapiens, MCF7, 72 h) was more than 100 µM; in assay [2], 137 ± 3 µM; in assay [5], 137 to 280 µM.
As to `Cc1cc(S(=O)(=O)N=c2[nH]c3ccc(F)cc3[nH]2)c(SCc2nc(N)nc(N3CCc4ccccc43)n2)cc1Cl` [Compound 34, 2-{[4-Amino-6-(indolin-1-yl)-1,3,5-triazin-2-yl]metylthio}-4-chloro-N-(5-fluoro-1H-benzo[d]imidazol-2(3H)-ylidene)-5-methylbenzenesulfonamide], the IC50 in assay [1] (Homo sapiens, HCT-116, 72 h) is 17 ± 1 µM; in assay [2] (Homo sapiens, MCF7, 72 h), 25 ± 1 µM; in assay [3] (Homo sapiens, HeLa) it was 30 ± 1 µM; in assay [4], 41 ± 1 µM; in assay [5], 17 to 30 µM.
The like results for `Cc1cc(S(=O)(=O)N=c2[nH]c3ccc(Cl)cc3[nH]2)c(SCc2nc(N)nc(Nc3ccccc3)n2)cc1Cl` [Compound 42, 2-{[4-Amino-6-(phenylamino)-1,3,5-triazin-2-yl]methylthio}-4-chloro-N-(5-chloro-1H-benzo[d]imidazol-2(3H)-ylidene)-5-methylbenzenesulfonamide] were, in that order, 18 ± 1 µM, 23 ± 1 µM, 24 ± 1 µM, 37 ± 1 µM and 17 to 30 µM.
For `Cc1cc(S(=O)(=O)N=c2[nH]c3ccc(Cl)cc3[nH]2)c(SCc2nc(N)nc(N3CCN(c4ccccc4)CC3)n2)cc1Cl` [Compound 45, 2-[{4-Amino-6-[4-(4-phenyl)piperazin-1-yl]-1,3,5-triazin-2-yl}metylthio]-4-chloro-N-(5-chloro-1H-benzo[d]imidazol-2(3H)-ylidene)-5-methylbenzenesulfonamide], the IC50 amounted to 15 ± 1 µM in assay [1] (Homo sapiens, HCT-116, 72 h); 26 ± 1 µM in assay [2] (Homo sapiens, MCF7, 72 h); 28 ± 1 µM in assay [3] (Homo sapiens, HeLa); 39 ± 1 µM in assay [4].
Consider `Cc1cc(S(=O)(=O)N=c2[nH]c3ccc(Cl)cc3[nH]2)c(SCc2nc(N)nc(N3CCN(c4ccc(F)cc4)CC3)n2)cc1Cl` [Compound 46, 2-[{4-Amino-6-[4-(4-fluorophenyl)piperazin-1-yl]-1,3,5-triazin-2-yl}metylthio]-4-chloro-N-(5-chloro-1H-benzo[d]imidazol-2(3H)-ylidene)-5-methylbenzenesulfonamide], for which the IC50 in assay [1] (Homo sapiens, HCT-116, 72 h) is 7 to 11 µM; in assay [1], 7 ± 0.1 µM; in assay [2] (Homo sapiens, MCF7, 72 h) it was 17 to 19 µM; in assay [2] it was 15 ± 1 µM; in assay [3] (Homo sapiens, HeLa), 11 to 18 µM; in assay [3] it was 18 ± 1 µM. Besides, the results for the IC50 in assay [4] and in assay [5] were 28 ± 1 µM and 7 to 19 µM, respectively. The “selectivity ratio HaCaT/HCT-116” value in assay [1] (ratio of IC50 values) was 4. Also, the “selectivity ratio HaCaT/MCF-7” value in assay [2] (ratio of IC50 values) was determined as 2.
For the compound `Cc1cc(S(=O)(=O)N=c2[nH]c3ccc(Cl)cc3[nH]2)c(SCc2nc(N)nc(N3CCN(c4ccc(C(F)(F)F)cc4)CC3)n2)cc1Cl` [Compound 47, 2-{[4-Amino-6-{4-[4-(trifluoromethyl)phenyl]piperazin-1-yl}-1,3,5-triazin-2-yl]methylthio}-4-chloro-N-(5-chloro-1H-benzo[d]imidazol-2(3H)-ylidene)-5-methylbenzenesulfonamide], the IC50 in assay [1] (Homo sapiens, HCT-116, 72 h) amounted to 21 ± 1 µM; in assay [2] (Homo sapiens, MCF7, 72 h), 24 ± 1 µM; in assay [3] (Homo sapiens, HeLa), 22 ± 1 µM; in assay [4], 38 ± 1 µM.
For `Cc1cc(S(=O)(=O)N=c2[nH]c3ccc(Cl)cc3[nH]2)c(SCc2nc(N)nc(N3CCN(c4ccc(Cl)c(Cl)c4)CC3)n2)cc1Cl` [Compound 48, 2-[{4-Amino-6-[4-(3,4-dichlorophenyl)piperazin-1-yl]-1,3,5-triazin-2-yl}methylthio]-4-chloro-N-(5-chloro-1H-benzo[d]imidazol-2(3H)-ylidene)-5-methylbenzenesulfonamide], the IC50 was 34 ± 2 µM in assay [1] (Homo sapiens, HCT-116, 72 h); 32 ± 1 µM in assay [2] (Homo sapiens, MCF7, 72 h); 34 ± 1 µM in assay [3] (Homo sapiens, HeLa); 40 ± 2 µM in assay [4].
The like results for `COc1ccccc1N1CCN(c2nc(N)nc(CSc3cc(Cl)c(C)cc3S(=O)(=O)N=c3[nH]c4ccc(Cl)cc4[nH]3)n2)CC1` [Compound 49, 2-[{4-Amino-6-[4-(2-methoxyphenyl)piperazin-1-yl]-1,3,5-triazin-2-yl}methylthio]-4-chloro-N-(5-chloro-1H-benzo[d]imidazol-2(3H)-ylidene)-5-methylbenzenesulfonamide] were, in that order, 30 ± 1 µM, 35 ± 1 µM, 34 ± 1 µM and 96 ± 1 µM.
